According to patent US6479435B1, “Diaryl ethers and processes for their preparation and herbicidal and desiccant compositions containing them” (ISK Americas Incorporated, priority 1997, dated 2002):

Columns and labels:
Type in all cases: in vivo
[1] = test system: Johnsongrass (Sorghum halepense, SORHA); assay: Pre-emerge greenhouse herbicide test, phytotoxicity rating; settings: 14 days after application, rating scale 0-100
Procedure, shortened: (§1)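 Seeds sown in sandy loam mix one day before track-sprayer application of compounds in acetone at 125–1000 g ai/ha (187 l/ha), then surface-watered to incorporate and bottom-watered. Visual rating 14 days after application on a 0–100 scale (0 = no damage, 100 = all plants dead).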

[2] = test system: barnyardgrass (Echinochloa crusgalli, ECHCG); assay: as above; settings: 14 days after application, rating scale 0-100
Procedure, shortened: as §1

[3] = test system: common ragweed (Ambrosia artemisiifolia L., AMBEL); assay: as above; settings: 14 days after application, rating scale 0-100
Procedure, shortened: as §1

[4] = test system: green foxtail (Setaria viridis, SETVI); assay: as above; settings: 14 days after application, rating scale 0-100
Procedure, shortened: as §1

[5] = test system: ivyleaf morningglory (Ipomoea hederacea, IPOHE); assay: as above; settings: 14 days after application, rating scale 0-100
Procedure, shortened: as §1

[6] = test system: lambsquarters (Chenopodium album, CHEAL); assay: as above; settings: 14 days after application, rating scale 0-100
Procedure, shortened: as §1

[7] = test system: large crabgrass (Digitaria sanguinalis, DIGSA); assay: as above; settings: 14 days after application, rating scale 0-100
Procedure, shortened: as §1

[8] = test system: redroot pigweed (Amaranthus retroflexus, AMARE); assay: as above; settings: 14 days after application, rating scale 0-100
Procedure, shortened: as §1

[9] = test system: sicklepod (Cassia obtusifolia, CASOB); assay: as above; settings: 14 days after application, rating scale 0-100
Procedure, shortened: as §1

[10] = test system: velvetleaf (Abutilon theophrasti, ABUTH); assay: as above; settings: 14 days after application, rating scale 0-100
Procedure, shortened: as §1

[11] = test system: field corn (Zea mays L., var. Dekalb 535, CORN); assay: Pre-emerge greenhouse test, crop damage rating; settings: 14 days after application, rating scale 0-100
Procedure, shortened: as §1

[12] = test system: upland rice (Oryza sp., var.Tebonnet, RICE); assay: Pre-emerge greenhouse test, crop damage rating; settings: 14 days after application, rating scale 0-100
Procedure, shortened: as §1

[13] = test system: soybean (Glycine max L., var. Pella 86, SOY); assay: Pre-emerge greenhouse test, crop damage rating; design: key to SOY crop damage rating: 0 = no damage, 100 = complete death of all plants; settings: 14 days after application, rating scale 0-100
Procedure, shortened: as §1

[14] = test system: common ragweed (Ambrosia artemisiifolia L., AMBEL); assay: Post-emerge greenhouse herbicide test, phytotoxicity rating; settings: 14 days after application; for phytotoxicity rating AMBEL: scale 0-100
Procedure, shortened: (§2)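 Compounds in acetone with 0.25% v/v non-ionic surfactant were track-sprayed at 187 l/ha over plants at the 2-3 leaf stage, at 63 to 1000 g ai/ha. Pots were bottom-watered. Injury was scored visually 14 days later on a 0-100 scale, where 0 is no damage and 100 is complete plant death.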

[15] = test system: Johnsongrass (Sorghum halepense, SORHA); assay: as above; settings: 14 days after application; for phytotoxicity rating SORHA: scale 0-100
Procedure, shortened: as §2

[16] = test system: barnyardgrass (Echinochloa crusgalli, ECHCG); assay: as above; settings: 14 days after application; for phytotoxicity rating ECHCG: scale 0-100
Procedure, shortened: as §2

[17] = test system: green foxtail (Setaria viridis, SETVI); assay: as above; settings: 14 days after application; for phytotoxicity rating SETVI: scale 0-100
Procedure, shortened: as §2

[18] = test system: ivyleaf morningglory (Ipomoea hederacea, IPOHE); assay: as above; settings: 14 days after application; for phytotoxicity rating IPOHE: scale 0-100
Procedure, shortened: as §2

[19] = test system: lambsquarters (Chenopodium album, CHEAL); assay: as above; settings: 14 days after application; for phytotoxicity rating CHEAL: scale 0-100
Procedure, shortened: as §2

[20] = test system: large crabgrass (Digitaria sanguinalis, DIGSA); assay: as above; settings: 14 days after application; for phytotoxicity rating DIGSA: scale 0-100
Procedure, shortened: as §2

[21] = test system: redroot pigweed (Amaranthus retroflexus, AMARE); assay: as above; settings: 14 days after application; for phytotoxicity rating AMARE: scale 0-100
Procedure, shortened: as §2

[22] = test system: sicklepod (Cassia obtusifolia, CASOB); assay: as above; settings: 14 days after application; for phytotoxicity rating CASOB: scale 0-100
Procedure, shortened: as §2

[23] = test system: velvetleaf (Abutilon theophrasti, ABUTH); assay: as above; settings: 14 days after application; for phytotoxicity rating ABUTH: scale 0-100
Procedure, shortened: as §2

[24] = test system: field corn (Zea mays L., var. Dekalb 535, CORN); assay: Post-emerge greenhouse test, crop damage rating; settings: 14 days after application; for crop damage rating CORN: scale 0-100
Procedure, shortened: as §2

[25] = test system: upland rice (Oryza sp., var.Tebonnet, RICE); assay: Post-emerge greenhouse test, crop damage rating; settings: 14 days after application; for crop damage rating RICE: scale 0-100
Procedure, shortened: as §2

[26] = test system: soybean (Glycine max L., var. Pella 86, SOY); assay: Post-emerge greenhouse test, crop damage rating; design: key to crop damage rating SOY: 0-100 scale: 0 = no damage, 100 = complete death of all plants; settings: 14 days after application; for crop damage rating SOY: scale 0-100
Procedure, shortened: as §2

CC(=O)Nc1ccc(Oc2cc(-n3c(=O)n4n(c3=S)CCCC4)c(F)cc2Cl)c(C(F)(F)F)c1 [Compound 8-16]
phytotoxicity rating SORHA ([1]; 125 g ai/ha): 0
SORHA phytotoxicity rating ([1]; Rate 500 g al/ha): 10
phytotoxicity rating ECHCG ([2]; 125 g ai/ha): 0
ECHCG phytotoxicity rating ([2]; Rate 500 g al/ha): 0
phytotoxicity rating AMBEL ([3]; 125 g ai/ha): 40
AMBEL phytotoxicity rating ([3]; Rate 500 g al/ha): 100
phytotoxicity rating SETVI ([4]; 125 g ai/ha): 0
SETVI phytotoxicity rating ([4]; Rate 500 g al/ha): 70
phytotoxicity rating IPOHE ([5]; 125 g ai/ha): 0
IPOHE phytotoxicity rating ([5]; Rate 500 g al/ha): 0
phytotoxicity rating CHEAL ([6]; 125 g ai/ha): 100
CHEAL phytotoxicity rating ([6]; Rate 500 g al/ha): 100
phytotoxicity rating DIGSA ([7]; 125 g ai/ha): 0
DIGSA phytotoxicity rating ([7]; Rate 500 g al/ha): 30
phytotoxicity rating AMARE ([8]; 125 g ai/ha): 80
AMARE phytotoxicity rating ([8]; Rate 500 g al/ha): 90
phytotoxicity rating CASOB ([9]; 125 g ai/ha): 0
CASOB phytotoxicity rating ([9]; Rate 500 g al/ha): 0
phytotoxicity rating ABUTH ([10]; 125 g ai/ha): 90
ABUTH phytotoxicity rating ([10]; Rate 500 g al/ha): 100
crop damage rating CORN ([11]; 125 g ai/ha): 0
CORN crop damage rating ([11]; Rate 500 g al/ha): 0
crop damage rating RICE ([12]; 125 g ai/ha): 0
RICE crop damage rating ([12]; Rate 500 g al/ha): 0
crop damage rating SOY ([13]; 125 g ai/ha): 0
SOY crop damage rating ([13]; Rate 500 g al/ha): 10
AMBEL phytotoxicity rating (0-100) ([14]; 63 g al/ha): 40
phytotoxicity rating AMBEL ([14]; rate 500 g ai/ha): 40
SORHA phytotoxicity rating (0-100) ([15]; 63 g al/ha): 0
phytotoxicity rating SORHA ([15]; rate 500 g ai/ha): 10
ECHCG phytotoxicity rating (0-100) ([16]; 63 g al/ha): 0
phytotoxicity rating ECHCG ([16]; rate 500 g ai/ha): 0
SETVI phytotoxicity rating (0-100) ([17]; 63 g al/ha): 10
phytotoxicity rating SETVI ([17]; rate 500 g ai/ha): 30
IPOHE phytotoxicity rating (0-100) ([18]; 63 g al/ha): 90
phytotoxicity rating IPOHE ([18]; rate 500 g ai/ha): 75
CHEAL phytotoxicity rating (0-100) ([19]; 63 g al/ha): 85
phytotoxicity rating CHEAL ([19]; rate 500 g ai/ha): 95
DIGSA phytotoxicity rating (0-100) ([20]; 63 g al/ha): 0
phytotoxicity rating DIGSA ([20]; rate 500 g ai/ha): 0
AMARE phytotoxicity rating (0-100) ([21]; 63 g al/ha): 90
phytotoxicity rating AMARE ([21]; rate 500 g ai/ha): 100
CASOB phytotoxicity rating (0-100) ([22]; 63 g al/ha): 0
phytotoxicity rating CASOB ([22]; rate 500 g ai/ha): 70
ABUTH phytotoxicity rating (0-100) ([23]; 63 g al/ha): 80
phytotoxicity rating ABUTH ([23]; rate 500 g ai/ha): 100
CORN crop damage rating (0-100) ([24]; 63 g al/ha): 0
crop damage rating CORN ([24]; rate 500 g ai/ha): 5
RICE crop damage rating (0-100) ([25]; 63 g al/ha): 0
crop damage rating RICE ([25]; rate 500 g ai/ha): 0
SOY crop damage rating (0-100) ([26]; 63 g al/ha): 10
crop damage rating SOY ([26]; rate 500 g ai/ha): 20

O=c1n(-c2cc(Oc3ncccc3[N+](=O)[O-])c(Cl)cc2F)c(=S)n2n1CCCC2 [Compound 8-19]
SORHA phytotoxicity rating ([1]; Rate 125 g al/ha): 80
SORHA phytotoxicity rating ([1]; Rate 500 g al/ha): 95
ECHCG phytotoxicity rating ([2]; Rate 125 g al/ha): 50
ECHCG phytotoxicity rating ([2]; Rate 500 g al/ha): 95
AMBEL phytotoxicity rating ([3]; Rate 125 g al/ha): 50
AMBEL phytotoxicity rating ([3]; Rate 500 g al/ha): 100
SETVI phytotoxicity rating ([4]; Rate 125 g al/ha): 100
SETVI phytotoxicity rating ([4]; Rate 500 g al/ha): 100
IPOHE phytotoxicity rating ([5]; Rate 125 g al/ha): 40
IPOHE phytotoxicity rating ([5]; Rate 500 g al/ha): 90
CHEAL phytotoxicity rating ([6]; Rate 125 g al/ha): 100
CHEAL phytotoxicity rating ([6]; Rate 500 g al/ha): 100
DIGSA phytotoxicity rating ([7]; Rate 125 g al/ha): 30
DIGSA phytotoxicity rating ([7]; Rate 500 g al/ha): 100
AMARE phytotoxicity rating ([8]; Rate 125 g al/ha): 100
AMARE phytotoxicity rating ([8]; Rate 500 g al/ha): 100
CASOB phytotoxicity rating ([9]; Rate 125 g al/ha): 20
CASOB phytotoxicity rating ([9]; Rate 500 g al/ha): 100
ABUTH phytotoxicity rating ([10]; Rate 125 g al/ha): 100
ABUTH phytotoxicity rating ([10]; Rate 500 g al/ha): 100
CORN crop damage rating ([11]; Rate 125 g al/ha): 15
CORN crop damage rating ([11]; Rate 500 g al/ha): 30
RICE crop damage rating ([12]; Rate 125 g al/ha): 50
RICE crop damage rating ([12]; Rate 500 g al/ha): 80
SOY crop damage rating ([13]; Rate 125 g al/ha): 20
SOY crop damage rating ([13]; Rate 500 g al/ha): 0
phytotoxicity rating AMBEL ([14]; rate 63 g ai/ha): 90
phytotoxicity rating AMBEL ([14]; rate 500 g ai/ha): 90
phytotoxicity rating SORHA ([15]; rate 63 g ai/ha): 50
phytotoxicity rating SORHA ([15]; rate 500 g ai/ha): 50
phytotoxicity rating ECHCG ([16]; rate 63 g ai/ha): 50
phytotoxicity rating ECHCG ([16]; rate 500 g ai/ha): 50
phytotoxicity rating SETVI ([17]; rate 63 g ai/ha): 60
phytotoxicity rating SETVI ([17]; rate 500 g ai/ha): 90
phytotoxicity rating IPOHE ([18]; rate 63 g ai/ha): 100
phytotoxicity rating IPOHE ([18]; rate 500 g ai/ha): 100
phytotoxicity rating CHEAL ([19]; rate 63 g ai/ha): 100
phytotoxicity rating CHEAL ([19]; rate 500 g ai/ha): 100
phytotoxicity rating DIGSA ([20]; rate 63 g ai/ha): 30
phytotoxicity rating DIGSA ([20]; rate 500 g ai/ha): 30
phytotoxicity rating AMARE ([21]; rate 63 g ai/ha): 100
phytotoxicity rating AMARE ([21]; rate 500 g ai/ha): 100
phytotoxicity rating CASOB ([22]; rate 63 g ai/ha): 70
phytotoxicity rating CASOB ([22]; rate 500 g ai/ha): 90
phytotoxicity rating ABUTH ([23]; rate 63 g ai/ha): 100
phytotoxicity rating ABUTH ([23]; rate 500 g ai/ha): 100
crop damage rating CORN ([24]; rate 63 g ai/ha): 30
crop damage rating CORN ([24]; rate 500 g ai/ha): 30
crop damage rating RICE ([25]; rate 63 g ai/ha): 40
crop damage rating RICE ([25]; rate 500 g ai/ha): 60
crop damage rating SOY ([26]; rate 63 g ai/ha): 65
crop damage rating SOY ([26]; rate 500 g ai/ha): 50
